The record followed here is the supplement of paper PMC6723410.

The first experiment concerns GUMC-403. In words: viability at highest tested concentration (max response) relative to DMSO (% of DMSO control); higher = less cytotoxic. Particulars: library / dose series: MIPE library, 11-point 1:3 dilution; top concentration 23 µM; 48 h. An outline of the steps:
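GUMC-403 papilloma cells, derived from a patient and expanded by conditional reprogramming, were dispensed at 700/well into 1536-well plates in 5 μL F + Y medium. A pin tool delivered 23 nL of each compound across an 11-point 1:3 dilution series for 48 h. CellTiter-Glo luminescence, read on a ViewLux, was normalised so that vehicle wells equalled 100% and empty wells 0%. Values report viability at the highest tested concentration relative to vehicle control.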
With `COc1cccc(Nc2c(C(N)=O)cnc3c(C)cc([S+](=O)([O-])c4cccc(C(=O)N(C)C)c4)cc23)c1`, the viability was 97.1.

The experiment is the same for the next values; noted with them: library / dose series: MIPE library, 11-point 1:3 dilution; top concentration 27.2 µM; 48 h.
Regarding `CN1[C@@H]2CC(OC(=O)[C@@H](CO)c3ccccc3)C[C@H]1[C@H]1O[C@H]12` (some centres undefined), the viability came to 131.

The same experiment, now with this note: library / dose series: MIPE library, 11-point 1:3 dilution; top concentration 46.1 µM; 48 h.
`C=C(c1ccc(C(=O)O)cc1)c1cc2c(cc1C)C(C)(C)CCC2(C)C`: the viability was determined as 97.6.

Take `O=C(Nc1cc(Cl)cc2c1[nH]c1cnccc12)c1cccnc1`: the viability was 56.8.

Molecule `CC(C)c1onc(-c2c(Cl)cccc2Cl)c1COc1ccc(/C=C/c2cccc(C(=O)O)c2)c(Cl)c1` showed a viability of 123.

`CN(C)CC/C=C1/c2ccccc2COc2ccc(CC(=O)O)cc21`: the viability is 100.

`O=C(NC[C@H](O)CO)c1ccncc1Nc1ccc(I)cc1F` returned a viability of 72.6.

Molecule `CN(N=O)C(=O)N[C@H]1C(O)OC(CO)[C@@H](O)[C@@H]1O` (some centres undefined) registered a viability of 113.

With `CC12CC3CC(C)(C1)CC(N)(C3)C2`, the viability amounted to 117.

`[O-]C(=O)C1=C(C(=C(Cl)C(=C1Cl)Cl)Cl)C/2=C/3\C=C(I)/C(=O)/C(=C3OC4=C2C=C(I)C(=C4I)[O-])I` registered a viability of 82.

Molecule `Cc1cc(Cl)ccc1OCCCC(=O)NO` registered a viability of 89.3.

As for `O=C(NCC1CCOCC1)c1cnc(Nc2ccc(Cl)cc2Cl)nc1C(F)(F)F`, the viability came to 141.

Take `COC(=O)C/1=C/O[C@@H](O)[C@H]\2[C@@H]1C\C=C2CO`: the viability stood at 94.5.

In the case of `CNC(=O)c1ccc(-c2cnc3ncc(Cc4ccc5ncccc5c4)n3n2)cc1F`, the viability came out at 103.

`CC(=O)Nc1ccc(O)cc1` showed a viability of 123.

The molecule `CC(=O)O[C@H]1C[C@@H]2CC[C@@H]3[C@H](CC[C@@]4(C)[C@H]3C[C@H]([N+]3(C)CCCCC3)[C@@H]4OC(C)=O)[C@@]2(C)C[C@@H]1N1CCCCC1` gave a viability of 130.

Consider `N=C(N)NC(=N)NCCc1ccccc1`, for which the viability was found to be 83.9.

Molecule `CN(C)c1nc(Cc2ccc(NC(=O)c3ccc(C(F)(F)F)cc3)cc2)nc(N(C)C)c1CC(=O)O` returned a viability of 127.

On to `Cc1cc(O)c2c(c1)C(=O)c1cccc(O)c1C2=O`, for which the viability worked out at 95.5.

`CO/N=C(/C(=O)N[C@@H]1C(=O)N2C(C(=O)O)=C(CSC(=O)c3ccco3)CS[C@H]12)c1csc(N)n1`: the viability came to 172.

For `O=C(O)c1ccc2cc(-c3ccc(O)c(C45CC6CC(CC(C6)C4)C5)c3)ccc2c1`, the viability amounted to 109.

`Nc1ccccc1NC(=O)c1ccc(CNc2nccc(-c3cccnc3)n2)cc1` gave a viability of 85.9.

As to `O=C(O)c1ccc(-c2c[nH]c3ncc(-c4ccccc4)cc23)cc1C1CCCC1`, the viability turned out to be 145.

`CCC(=O)O[C@@]1([C@@H](C)C[C@H]2[C@@H]3CCC/4=C/C(=O)/C=C\[C@]4(C)[C@@]3(F)[C@@H](O)C[C@]12C)C(=O)CCl` returned a viability of 148.

`O=C(O)c1cccnc1` showed a viability of 103.

The molecule `COc1cc(CNC(=O)CCCC/C=C/C(C)C)ccc1O` returned a viability of 128.

`CC[C@H](C)C(=O)O[C@H]1C[C@H](O)\C=C2\C=C/[C@H](C)[C@H](CC[C@@H](O)C[C@@H](O)CC(O)=O)[C@@H]12` displayed a viability of 103.

In turn, `Clc1ccccc1C(c1ccccc1)(c1ccccc1)n1cccn1` returned a viability of 105.

As for `C[C@]12CCC3c4ccc(O)cc4CCC3C1CCC2=O` (some centres undefined), the viability is 94.8.

For `O=C(NC1CC1)c1cccc(-c2ccc3c(NC(=O)C4CC4)n[nH]c3c2)c1`, the viability is 110.

Turning to `CC(CCc1ccc(O)cc1)NCCc1ccc(O)c(O)c1` (centres undefined), the viability stood at 105.

As for `C#CCN(C)[C@H](C)Cc1ccccc1`, the viability was found to be 92.4.

The molecule `Nc1c2c(nc3ccccc13)CCCC2` had a viability of 107.

The experiment is the same for the next values; noted with them: library / dose series: MIPE library, 11-point 1:3 dilution; top concentration 92.2 µM; 48 h.
In the case of `O=C(/C=C/c1cccc([S+](=O)([O-])Nc2ccccc2)c1)NO`, the viability is 87.7.
